Patent US20250313574A1, “SIALIC ACID DERIVATIVES AND METHODS OF USING SAME” (EISAI R&D MANAGEMENT CO., LTD., priority 2022, published 2025)

Tests used:
[1] = target: Recombinant Human Siglec-3/CD33 protein (His-CD33) (Homo sapiens (Human), UniProt P20138); test: Differential scanning fluorimetry (DSF) thermal shift assay; type: binding
Experimental: In the DSF assay, as the temperature increases, the protein gets gradually unfolded, exposing hydrophobic regions in which a fluorescent dye binds causing the fluorescence signal to increase. The midpoint of the unfolding transitions is called the thermal melt (Tm) or denaturation temperature and the Tm was defined as the peak apex in the derivative curve. Here, the Tm temperature of CD33 in the presence and absence of A-001 at a concentration of 50 μM was examined.
Recombinant Human Siglec-3/CD33 protein was purchased from Acros (catalog no. CD3-H5226) and reagents used in this study are shown in the Table 1 below.
Lyophilized CD33 protein was received in 1 mg aliquots from Acros. The protein was diluted with 2.5 mL of sterile water to a concentration of 400 μg/mL (14.5 μM), aliquoted into 138 μL aliquots and stored as at −20° C. On the day of analysis, the protein was thawed and […] solution was diluted to […] using buffer containing 133 mM NaCl, 133 mM phosphate buffered solution and 13.9× Sypro Orange dye in water in a quantity to cover the amount of samples tested on the day of the analysis.
200 μM stock solutions of A-001 containing 0.2% DMSO in water was supplied by compound management in a 384-well plate format.
Sample matrix were prepared by adding 7.5 μL of the protein buffer stock solution followed by addition of 2.5 μL of the 200 μM compound solutions in 384-well PCR plates to give a final volume of 10 μL per well consisting of 0.5 μM CD33 protein, 100 mM phosphate buffered solution pH 7.4, 100 mM NaCl, 10× SYPRO orange dye and 50 μM compound concentration (final DMSO concentration ˜0.2%). Using the Applied Biosystems® Protein Thermal Shift software (algorithm version 1.3.), the denaturation temperature or thermal melt (Tm) of the unbound and ligand bound CD33 protein was automatically assigned and the difference in thermal melt (ΔTm D) was calculated using the derivative curve by the Protein Thermal Shift software.
Recombinant human CD33 protein (0.5 μM) was incubated under buffered conditions in the presence of SYPRO orange dye, a temperature gradient was applied and a thermogram was produced by monitoring the fluorescence. The Tm was defined as the peak apex in the derivative curve in the study. […] Addition of […] of A-001 (Blue lines) to the CD33 protein induced significant Tm increases (ΔTm D) of 12.2±0.7° C.

[2] = target: Recombinant human CD33 protein (Homo sapiens (Human), UniProt P20138); test: CD33 competitive binding assay for HTS drug screen (fluorescent multivalent sialic acid probe)
Sequence of Recombinant human CD33 protein (P20138 18-259): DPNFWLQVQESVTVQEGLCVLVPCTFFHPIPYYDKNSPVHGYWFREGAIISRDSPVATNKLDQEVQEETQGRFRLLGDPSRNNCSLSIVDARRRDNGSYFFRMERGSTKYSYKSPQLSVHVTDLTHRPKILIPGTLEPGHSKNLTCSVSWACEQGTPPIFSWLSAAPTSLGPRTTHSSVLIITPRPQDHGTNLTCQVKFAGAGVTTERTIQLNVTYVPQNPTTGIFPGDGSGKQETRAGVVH
Procedure, shortened: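 Inhibition was read as reduced retention of a fluorescent multivalent sialic acid complex (final 5 μM neutravidin, 15 μM A-375, 5 μM biotin-4-FITC) on plate-immobilized human CD33. Compound was added first, the probe followed for 30 min at room temperature in PBS with 0.2% Tween-20 and 0.5% BSA, and FITC was measured after a wash.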

[3] = difference in thermal melt of CD33 protein (0.5 μM) with 50 μM compound
[4] = thermal melt shift of 0.5 μM CD33 protein with 50 μM compound

Sequence of Recombinant Human Siglec-3/CD33 protein (His-CD33) (P20138 18-259): as above

| Compound | DSF (dTmD) [1, 3] | EC50 [2] | DSF (dTmD) [1, 4] |
| --- | --- | --- | --- |
| CC(=O)N[C@H]1[C@H]([C@H](O)[C@H](O)CNC(=O)c2cc(C)c(O)c(C)c2)O[C@@](CC2OC(C)(C)O[C@@H]2c2cccc(C(=O)NCc3ccccc3)c2)(C(=O)O)C[C@@H]1O (some centres unmarked) [A-312] | 4.5 °C | 159 nM |  |
| CC(=O)N[C@H]1[C@H]([C@H](O)[C@H](O)CNC(=O)c2cc(C)c(O)c(C)c2)O[C@@](CC2OC(C)(C)O[C@H]2c2ccc(F)c(N3CCCC3=O)c2)(C(=O)O)C[C@@H]1O (some centres unmarked) [A-317] | 6.5 °C | 920 nM |  |
| Cc1cc2cc(C)c1OCCOC[C@@H](NC(=O)C1CCCOC1)COC/C=C/C[C@]1(C(=O)O)C[C@H](O)[C@@H](NC(=O)Cn3cc(C4CCCCC4)nn3)[C@@H](O1)[C@H](O)[C@H](O)CNC2=O (some centres unmarked) [A-338] | 5.6 °C | 3820 nM |  |
| Cc1cc(C(=O)NC[C@@H](O)[C@@H](O)[C@H]2C[C@@H](O)C[C@](CCN3CCOC[C@@]34CCN(C(=O)OC(C)(C)C)C4)(C(=O)O)O2)cc(C)c1O [A-202] | 5.46 °C | 311 nM |  |
| CC(=O)N[C@H]1[C@H]([C@H](O)[C@H](O)CNC(=O)c2cc(C)c(O)c(C)c2)O[C@@](C[C@H]2COC[C@@]3(CCN(C(=O)OC(C)(C)C)C3)N2)(C(=O)O)C[C@@H]1O [A-227] | 14.6 °C | 12 nM |  |
| CC(=O)N[C@H]1[C@H]([C@H](O)[C@H](O)CNC(=O)c2cc(C)c(O)c(C)c2)O[C@@](C/C=C/c2cccc(CNC(=O)c3ccc4[nH]c(C(C)O)nc4c3)c2)(C(=O)O)C[C@@H]1O (some centres unmarked) [A-243] | 5.4 °C | 255 nM |  |
| Cc1cc2cc(C)c1OCCCCNC(=O)CCCCCC[C@]1(C(=O)O)C[C@H](O)[C@@H](NC(=O)Cn3cc(C4CCCCC4)nn3)[C@@H](O1)[C@H](O)[C@H](O)CNC2=O [A-346] | 3.4 °C | 13300 nM |  |
| CC(=O)N[C@H]1[C@H]([C@H](O)[C@H](O)CNC(=O)c2cc(C)c(O)c(C)c2)O[C@@](C[C@H]2COCC3(CCN(C(=O)OC(C)(C)C)CC3)N2)(C(=O)O)C[C@@H]1O [A-231] | 5.2 °C | 1410 nM |  |
| CC(=O)N[C@H]1[C@H]([C@H](O)[C@H](O)CNC(=O)c2cc(C)c(O)c(C)c2)O[C@@](CC2OC(C)(C)O[C@H]2c2cccc(N3CCCC3=O)c2)(C(=O)O)C[C@@H]1O (some centres unmarked) [A-309] | 5.2 °C | 540 nM |  |
| CC(=O)N[C@H]1[C@H]([C@H](O)[C@H](O)CNC(=O)c2cc(-c3csc(C)n3)on2)O[C@@](CCN2CCOC[C@@]23CCN(C(=O)OC(C)(C)C)C3)(C(=O)O)C[C@@H]1O [A-179] |  | 217 nM | 7.7 |
| CC(=O)N[C@H]1[C@H]2O[C@](C(=O)O)(CC/C=C/CO[C@H]3C[C@H](CN3C(=O)C3CCCOC3)OCCOc3c(C)cc(cc3C)C(=O)NC[C@@H](O)[C@H]2O)C[C@@H]1O (some centres unmarked) [A-357] | 1.1 °C | 66100 nM |  |
| Cc1cc(C(=O)NC[C@@H](O)[C@@H](O)[C@@H]2O[C@@](OC3CCCCC3NC(=O)CN(C)C(=O)OCc3cccc(C(=O)NC4CC4)c3)(C(=O)O)C[C@H](O)[C@H]2NC(=O)Cn2cc(C3CCCCC3)nn2)cc(C)c1O (some centres unmarked) [A-326] | 4.0 °C | 13600 nM |  |
| CC(=O)N[C@H]1[C@H]([C@H](O)[C@H](O)CNC(=O)c2cccc(N(C)C)c2)O[C@@](CCN2CCOC[C@@]23CCN(C(=O)OC(C)(C)C)C3)(C(=O)O)C[C@@H]1O [A-183] |  | 173 nM | 10.3 |
| CC(=O)N[C@H]1[C@H]([C@H](O)[C@H](O)CNC(=O)c2cc(C)c(O)c(C)c2)O[C@@](CCN2CCN(C)C[C@@]23CCN(C(=O)OC(C)(C)C)C3)(C(=O)O)C[C@@H]1O [A-010] |  | 15 nM | 13.5 |
| CC(=O)N[C@H]1[C@H]([C@H](O)[C@H](O)CNC(=O)c2cc(C)c(O)c(C)c2)O[C@@](CCN2CCOC[C@@]23CCN(C(=O)C2(C)COC2)C3)(C(=O)O)C[C@@H]1O [A-100] |  | 2340 nM | 5.6 |
| CC(=O)N[C@H]1[C@H]([C@H](O)[C@H](O)CNC(=O)c2cc(C)c(O)c(C)c2)O[C@@](CCN2CCOC[C@@]23CCN(c2ccccn2)C3)(C(=O)O)C[C@@H]1O [A-037] |  | 39 nM | 9.6 |

| Compound | DSF (dTmD) [1, 3] | EC50 [2] | DSF (dTmD) [1, 4] |
| --- | --- | --- | --- |
| COCCC(=O)NCc1cccc(/C=C/C[C@]2(C(=O)O)C[C@H](O)[C@@H](NC(=O)Cn3cc(C4CCCCC4)nn3)[C@H]([C@H](O)[C@H](O)CNC(=O)c3cc(C)c(O)c(C)c3)O2)c1 [A-265] | 4.1 °C | 1370 nM |  |
| Cc1cc(C(=O)NC[C@@H](O)[C@@H](O)[C@@H]2O[C@@](C/C=C/c3ccc4c(c3)C(NC(=O)C3CCCOC3)CC4)(C(=O)O)C[C@H](O)[C@H]2NC(=O)Cn2cc(C3CCCCC3)nn2)cc(C)c1O (some centres unmarked) [A-284] | 6.8 °C | 1660 nM |  |
| CC(=O)N[C@H]1[C@H]([C@H](O)[C@H](O)CNC(=O)c2cc(C)c(O)c(C)c2)O[C@@](CCN2CCOCC2c2cccnc2)(C(=O)O)C[C@@H]1O (some centres unmarked) [A-024] |  | 7940 nM | 1.1 |
| CC(=O)N[C@H]1[C@H]([C@H](O)[C@H](O)CNC(=O)c2cc(Br)ccc2F)O[C@@](CCN2CCOC[C@@]23CCN(C(=O)OC(C)(C)C)C3)(C(=O)O)C[C@@H]1O [A-172] |  | 820 nM | 7.6 |
| CC(=O)N[C@H]1[C@H]([C@H](O)[C@H](O)CNC(=O)c2cc(C)c(O)c(C)c2)O[C@@](CC2OC(C)(C)O[C@H]2c2cccc(NC(=O)c3ccc4cc[nH]c4c3)c2)(C(=O)O)C[C@@H]1O (some centres unmarked) [A-302] | 4.9 °C | 1500 nM |  |
| CC(=O)N1CCC(C(=O)NCc2cccc(/C=C/C[C@]3(C(=O)O)C[C@H](O)[C@@H](NC(=O)Cn4cc(C5CCCCC5)nn4)[C@H]([C@H](O)[C@H](O)CNC(=O)c4cc(C)c(O)c(C)c4)O3)c2)CC1 [A-266] | 6.2 °C | 1380 nM |  |
| CC(=O)N[C@H]1[C@H]([C@H](O)[C@H](O)CNC(=O)c2cc(C)c(O)c(C)c2)O[C@@](C/C=C/c2cccc(CNC(=O)C3CCC(Nc4ncccn4)C3)c2)(C(=O)O)C[C@@H]1O (some centres unmarked) [A-255] | 4.2 °C | 4460 nM |  |
| CC(=O)N[C@H]1[C@H]([C@H](O)[C@H](O)CNC(=O)c2ccc3occc3c2)O[C@@](CCN2CCOC[C@@]23CCN(C(=O)OC(C)(C)C)C3)(C(=O)O)C[C@@H]1O [A-121] |  | 29 nM | 13.6 |
| CCC/C(C)=C/C(=O)NC[C@@H](O)[C@@H](O)[C@@H]1O[C@@](CCN2CCOC[C@@]23CCN(C(=O)OC(C)(C)C)C3)(C(=O)O)C[C@H](O)[C@H]1NC(C)=O [A-162] |  | 4210 nM | 4.8 |
| Cc1cc(C(=O)NC[C@@H](O)[C@@H](O)[C@@H]2O[C@@](OC3CCCCC3NC(=O)Cn3cc(-c4ccccc4)nn3)(C(=O)O)C[C@H](O)[C@H]2NC(=O)Cn2cc(C3CCCCC3)nn2)cc(C)c1O (some centres unmarked) [A-333] | 4.5 °C | 12200 nM |  |
| CC(=O)N[C@H]1[C@H]([C@H](O)[C@H](O)CNC(=O)c2cc(C)c(O)c(C)c2)O[C@@](C/C=C/c2ccccc2CNC(=O)C2CCCOC2)(C(=O)O)C[C@@H]1O (some centres unmarked) [A-233] | 3.0 °C | 8990 nM |  |
| CC(=O)N[C@H]1[C@H]([C@H](O)[C@H](O)CNC(=O)c2ccccc2)O[C@@](CCN2CCOC[C@@]23CCN(C(=O)OC(C)(C)C)C3)(C(=O)O)C[C@@H]1O [A-187] |  | 1010 nM | 6.8 |
| CC(=O)N[C@H]1[C@H]([C@H](O)[C@H](O)CNC(=O)c2cnc(O)c(C)c2)O[C@@](CCN2CCOC[C@@]23CCN(C(=O)OC(C)(C)C)C3)(C(=O)O)C[C@@H]1O [A-189] |  | 150 nM | 9.8 |
| Cc1cc(C(=O)NC[C@@H](O)[C@@H](O)[C@@H]2O[C@@](C/C=C/c3cccc(CNC(=O)c4cccc(Cl)c4)c3)(C(=O)O)C[C@H](O)[C@H]2NC(=O)Cn2cc(C3CCCCC3)nn2)cc(C)c1O [A-262] | 1.9 °C | 6030 nM |  |
| CC(=O)N[C@H]1[C@H]([C@H](O)[C@H](O)CNC(=O)c2cnc3[nH]ncc3c2)O[C@@](CCN2CCOC[C@@]23CCN(C(=O)OC(C)(C)C)C3)(C(=O)O)C[C@@H]1O [A-126] |  | 50 nM | 11.2 |
